Assay results from PubChem BioAssay (NCI).
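Growth conditions: 96-well plates. Treatment: test compound, 48 hours, 5 concentrations. Analysis: linear interpolation between bracketing concentrations; unreached endpoints set to highest concentration. At the TGI there is no net growth.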

How the values were obtained:
Assay in all cases: NCI-60 cell line screen, 48 h
[1] = test system: DMS 273 small cell lung
[2] = test system: TK-10 renal
[3] = test system: SNB-75 CNS
[4] = test system: SK-MEL-5 melanoma
[5] = test system: ACHN renal
[6] = test system: KM12 colon
[7] = test system: U251 CNS
[8] = test system: UACC-62 melanoma
[9] = test system: SW-620 colon
[10] = test system: 786-0 renal
[11] = test system: COLO 205 colon
[12] = test system: MOLT-4 leukemia
[13] = test system: DMS 114 small cell lung
[14] = test system: NCI-H23 lung
[15] = test system: HOP-62 NSCLC
[16] = test system: HOP-18 NSCLC
[17] = test system: HCC-2998 colon
[18] = test system: HCT-15 colon
[19] = test system: SN12C renal
[20] = test system: OVCAR-3 ovarian
[21] = test system: HCT-116 colon
[22] = test system: SF-268 CNS
[23] = test system: HL-60(TB) leukemia
[24] = test system: NCI-H226 lung
[25] = test system: LOX IMVI melanoma
[26] = test system: UO-31 renal
[27] = test system: SNB-78 CNS
[28] = test system: IGROV1 ovarian
[29] = test system: M14 melanoma
[30] = test system: SK-OV-3 ovarian
[31] = test system: SK-MEL-28 melanoma
[32] = test system: A498 renal
[33] = test system: SNB-19 CNS
[34] = test system: SF-295 CNS
[35] = test system: RPMI-8226 leukemia
[36] = test system: UACC-257 melanoma
[37] = test system: CAKI-1 renal
[38] = test system: K-562 leukemia
[39] = test system: DLD-1 colon
[40] = test system: NCI-H460 lung
[41] = test system: MALME-3M melanoma
[42] = test system: CCRF-CEM leukemia
[43] = test system: M19-MEL melanoma
[44] = test system: OVCAR-5 ovarian
[45] = test system: SK-MEL-2 melanoma
[46] = test system: KM20L2 colon
[47] = test system: OVCAR-4 ovarian
[48] = test system: HT29 colon
[49] = test system: EKVX NSCLC
[50] = test system: LXFL 529 NSCLC
[51] = test system: A549 NSCLC
[52] = test system: OVCAR-8 ovarian
[53] = test system: RXF 393 renal
[54] = test system: NCI-H522 lung
[55] = test system: SF-539 CNS
[56] = test system: SR leukemia
[57] = test system: HOP-92 NSCLC
[58] = test system: XF 498 CNS

`COC(=O)[C@@]12C(=O)C=CC(=O)C1C1C(=CC2C)OC2OC3(CCCCC3)OC21` (stereo partly specified) gave a TGI [1] of 36.2 µM, a TGI [2] of 31.6 µM and a TGI [3] of 33.2 µM. It also gave a TGI [4] of 33.6 µM, a TGI [5] of 30.6 µM and a TGI [6] of 36.4 µM. The TGI [7] was 31.6 µM, the TGI [8] was 29 µM and the TGI [9] was 37.4 µM. For the same compound, the TGI [10] was 32.4 µM, the TGI [11] was 28.4 µM and the TGI [12] was 37.5 µM. For the same compound, the TGI [13] was 31.4 µM, the TGI [14] was 39.9 µM and the TGI [15] was 35.8 µM. The TGI [16] was 34.6 µM, the TGI [17] was 28.2 µM and the TGI [18] was 31.1 µM. It also gave a TGI [19] of 33.2 µM, a TGI [20] of 33.8 µM and a TGI [21] of 29.8 µM. The TGI [22] was 48.6 µM, the TGI [23] was 15.7 µM and the TGI [24] was 33.7 µM. For the same compound, the TGI [25] was 42.8 µM, the TGI [26] was 30.5 µM and the TGI [27] was 42.3 µM. The TGI [28] was 35.1 µM, the TGI [29] was 33.6 µM and the TGI [30] was 33.9 µM. The TGI [31] was 33.6 µM, the TGI [32] was 32.2 µM and the TGI [33] was 31.9 µM. For the same compound, the TGI [34] was 32.9 µM, the TGI [35] was 26.4 µM and the TGI [36] was 31.5 µM. It also gave a TGI [37] of 33.4 µM, a TGI [38] of 74.6 µM and a TGI [39] of 35.7 µM. For the same compound, the TGI [40] was 35.7 µM, the TGI [41] was 37.8 µM and the TGI [42] was 7.49 µM. It also gave a TGI [43] of 35.1 µM, a TGI [44] of 27.8 µM and a TGI [45] of 35.5 µM. For the same compound, the TGI [46] was 38.4 µM, the TGI [47] was 30.3 µM and the TGI [48] was 44.9 µM. The TGI [49] was 37.8 µM, the TGI [50] was 26.3 µM and the TGI [51] was 36.3 µM. The TGI [52] was 30.9 µM.
For `O=Cc1ccccc1COC(=O)c1cc(C(=O)OCc2ccccc2C=O)c(C(=O)OCc2ccccc2C=O)cc1C(=O)OCc1ccccc1C=O`, the TGI [1] was greater than 100 µM, the TGI [2] was greater than 100 µM and the TGI [3] was 65.4 µM. The TGI [4] was greater than 100 µM, the TGI [5] was greater than 100 µM and the TGI [6] was greater than 100 µM. It also gave a TGI [7] greater than 100 µM, a TGI [53] greater than 100 µM and a TGI [8] greater than 100 µM. The TGI [9] was greater than 100 µM, the TGI [10] was greater than 100 µM and the TGI [11] was greater than 100 µM. The TGI [12] was greater than 100 µM, the TGI [13] was greater than 100 µM and the TGI [14] was greater than 100 µM. It also gave a TGI [16] greater than 100 µM, a TGI [17] greater than 100 µM and a TGI [18] greater than 100 µM. The TGI [54] was greater than 100 µM, the TGI [19] was greater than 100 µM and the TGI [20] was greater than 100 µM. It also gave a TGI [21] greater than 100 µM, a TGI [22] greater than 100 µM and a TGI [23] greater than 100 µM. For the same compound, the TGI [24] was greater than 100 µM, the TGI [25] was greater than 100 µM and the TGI [26] was greater than 100 µM. The TGI [27] was greater than 100 µM, the TGI [28] was greater than 100 µM and the TGI [29] was greater than 100 µM. It also gave a TGI [30] greater than 100 µM, a TGI [31] greater than 100 µM and a TGI [32] greater than 100 µM. The TGI [33] was greater than 100 µM, the TGI [34] was greater than 100 µM and the TGI [35] was greater than 100 µM. For the same compound, the TGI [36] was greater than 100 µM, the TGI [37] was greater than 100 µM and the TGI [55] was greater than 100 µM. It also gave a TGI [38] greater than 100 µM, a TGI [39] greater than 100 µM and a TGI [40] greater than 100 µM. It also gave a TGI [41] greater than 100 µM, a TGI [42] greater than 100 µM and a TGI [43] greater than 100 µM. It also gave a TGI [44] greater than 100 µM, a TGI [45] greater than 100 µM and a TGI [46] greater than 100 µM. For the same compound, the TGI [56] was greater than 100 µM, the TGI [47] was greater than 100 µM and the TGI [48] was greater than 100 µM. The TGI [57] was greater than 100 µM, the TGI [49] was greater than 100 µM and the TGI [58] was greater than 100 µM. For the same compound, the TGI [50] was greater than 100 µM, the TGI [51] was greater than 100 µM and the TGI [52] was greater than 100 µM.
Compound `Cn1cc(C2(C)CC(C)(C)c3c2n(C)c2ccccc32)c2ccccc21` (stereo unspecified) has a TGI [1] greater than 100 µM, a TGI [2] greater than 100 µM and a TGI [3] greater than 100 µM. For the same compound, the TGI [4] was greater than 100 µM, the TGI [6] was greater than 100 µM and the TGI [7] was greater than 100 µM. It also gave a TGI [53] greater than 100 µM, a TGI [8] greater than 100 µM and a TGI [9] greater than 100 µM. It also gave a TGI [10] greater than 100 µM, a TGI [11] greater than 100 µM and a TGI [12] greater than 100 µM. For the same compound, the TGI [13] was greater than 100 µM, the TGI [14] was greater than 100 µM and the TGI [15] was greater than 100 µM. It also gave a TGI [17] greater than 100 µM, a TGI [18] greater than 100 µM and a TGI [54] greater than 100 µM. It also gave a TGI [19] greater than 100 µM, a TGI [20] greater than 100 µM and a TGI [22] greater than 100 µM. For the same compound, the TGI [24] was greater than 100 µM, the TGI [25] was greater than 100 µM and the TGI [26] was greater than 100 µM. It also gave a TGI [27] greater than 100 µM, a TGI [28] greater than 100 µM and a TGI [29] greater than 100 µM. The TGI [30] was greater than 100 µM, the TGI [31] was greater than 100 µM and the TGI [32] was greater than 100 µM. For the same compound, the TGI [33] was greater than 100 µM, the TGI [34] was greater than 100 µM and the TGI [35] was greater than 100 µM. For the same compound, the TGI [36] was greater than 100 µM, the TGI [37] was greater than 100 µM and the TGI [55] was greater than 100 µM. The TGI [38] was greater than 100 µM, the TGI [39] was greater than 100 µM and the TGI [40] was greater than 100 µM. For the same compound, the TGI [41] was greater than 100 µM, the TGI [42] was greater than 100 µM and the TGI [43] was greater than 100 µM. It also gave a TGI [45] greater than 100 µM, a TGI [46] greater than 100 µM and a TGI [48] greater than 100 µM. It also gave a TGI [57] greater than 100 µM, a TGI [49] greater than 100 µM and a TGI [58] greater than 100 µM. The TGI [50] was greater than 100 µM, the TGI [51] was greater than 100 µM and the TGI [52] was greater than 100 µM.
`Cc1[nH]c(=O)nc2[nH][nH]c(=O)c12` showed a TGI [2] greater than 100 µM, a TGI [5] greater than 100 µM and a TGI [6] greater than 100 µM. For the same compound, the TGI [7] was greater than 100 µM, the TGI [53] was greater than 100 µM and the TGI [8] was greater than 100 µM. The TGI [9] was greater than 100 µM, the TGI [10] was greater than 100 µM and the TGI [11] was greater than 100 µM. The TGI [12] was greater than 100 µM, the TGI [13] was greater than 100 µM and the TGI [14] was greater than 100 µM. It also gave a TGI [15] greater than 100 µM, a TGI [16] greater than 100 µM and a TGI [18] greater than 100 µM. It also gave a TGI [54] greater than 100 µM, a TGI [19] greater than 100 µM and a TGI [20] greater than 100 µM. The TGI [21] was greater than 100 µM, the TGI [22] was greater than 100 µM and the TGI [23] was greater than 100 µM. It also gave a TGI [24] greater than 100 µM, a TGI [25] greater than 100 µM and a TGI [28] greater than 100 µM. It also gave a TGI [29] greater than 100 µM, a TGI [30] greater than 100 µM and a TGI [31] greater than 100 µM. The TGI [34] was greater than 100 µM, the TGI [35] was greater than 100 µM and the TGI [37] was greater than 100 µM. For the same compound, the TGI [55] was greater than 100 µM, the TGI [38] was greater than 100 µM and the TGI [40] was greater than 100 µM. For the same compound, the TGI [41] was greater than 100 µM, the TGI [42] was greater than 100 µM and the TGI [43] was greater than 100 µM. For the same compound, the TGI [44] was greater than 100 µM, the TGI [45] was greater than 100 µM and the TGI [56] was greater than 100 µM. For the same compound, the TGI [47] was greater than 100 µM, the TGI [48] was greater than 100 µM and the TGI [57] was greater than 100 µM. It also gave a TGI [49] greater than 100 µM, a TGI [50] greater than 100 µM and a TGI [51] greater than 100 µM. For the same compound, the TGI [52] was greater than 100 µM.
